Nine molecules from patent US8895769B2, “Silicon-containing carboxylic acid derivative” (Kemphys Ltd., priority 2011, dated 2014) can be followed below.

One data set deals with T1, gabapentin receptor (Rattus norvegicus, UniProt P54290).
T1 construct: a gabapentin receptor was prepared from the brains of Wister rats; from tissue; host or cells: Wistar rat brain, prepared by the method of Suman-Chauhan et al. 1993
The data set is described as follows: Binding to gabapentin receptor (inhibition of [3H]gabapentin binding). The following applies: compound 1 μM; 0.02 μM [3H] gabapentin; receptor from brains of Wister rats. The method, then: According to the method of Suman-Chauhan et al. (Eur. J. Pharmacol, 244 (3), pp. 293-301, 1993), a gabapentin receptor was prepared from the brains of Wister rats. Binding of the following compounds (1 μM) to the gabapentin receptor was investigated on the basis of inhibition of binding of gabapentin in the presence of 0.02 μM [^3H] gabapentin. As a result, the following inhibition ratios were observed. • 4-Amino-3-(trimethylsilyl)butanoic acid: 35% • 4-Amino-3-(t-butyldimethylsilyl)butanoic acid: 13% • 4-Amino-3-(trimethylsilylmethyl)butanoic acid: 28% • 4-Amino-3-(dimethyl-n-octylsilyl)butanoic acid: 32%

For the next data set, the system named is rat Chung model. The data set is described as follows: Analgesic action test using Chung model. The data set is classed as in vivo. The following applies: single oral administration, 30 minutes after, physical stimulation, N=6. Here is the method:
A rat Chung model was used. 4-Amino-3-(trimethylsilyl)butanoic acid (Compound A), 4-amino-3-(trimethylsilylmethyl)butanoic acid (Compound B), 4-amino-3-[(1-methyl-1-silacyclopentan-1-yl)methyl]butanoic acid (Compound C), 4-(1-methyl-1-silacyclohexan-1-yl)-3-cyanobutanoic acid (Compound D), and pregabalin (positive control, Compound E) were each orally administered once to the rats, and analgesic action was examined 30 minutes thereafter on the basis of pain threshold values obtained with a physical stimulation (total number of groups: 11, N=6). As a result, the pain threshold values (g) of the agent-administered groups and the control group were as follows. • Control (0.5% MC): 5.3±0.4 • Compound A: 7.8±0.5 (60 mg/kg), 6.2±0.4 (20 mg/kg) • Compound B: 7.9±0.4 (60 mg/kg), 5.4±0.2 (20 mg/kg) • Compound C: 8.8±0.3 (60 mg/kg), 5.7±0.6 (20 mg/kg) • Compound D: 7.3±0.5 (60 mg/kg), 4.8±0.2 (20 mg/kg) • Compound E: 8.3±0.2 (30 mg/kg), 6.3±0.3 (10 mg/kg)

T1 sequence (P54290 25-944 limits assumed): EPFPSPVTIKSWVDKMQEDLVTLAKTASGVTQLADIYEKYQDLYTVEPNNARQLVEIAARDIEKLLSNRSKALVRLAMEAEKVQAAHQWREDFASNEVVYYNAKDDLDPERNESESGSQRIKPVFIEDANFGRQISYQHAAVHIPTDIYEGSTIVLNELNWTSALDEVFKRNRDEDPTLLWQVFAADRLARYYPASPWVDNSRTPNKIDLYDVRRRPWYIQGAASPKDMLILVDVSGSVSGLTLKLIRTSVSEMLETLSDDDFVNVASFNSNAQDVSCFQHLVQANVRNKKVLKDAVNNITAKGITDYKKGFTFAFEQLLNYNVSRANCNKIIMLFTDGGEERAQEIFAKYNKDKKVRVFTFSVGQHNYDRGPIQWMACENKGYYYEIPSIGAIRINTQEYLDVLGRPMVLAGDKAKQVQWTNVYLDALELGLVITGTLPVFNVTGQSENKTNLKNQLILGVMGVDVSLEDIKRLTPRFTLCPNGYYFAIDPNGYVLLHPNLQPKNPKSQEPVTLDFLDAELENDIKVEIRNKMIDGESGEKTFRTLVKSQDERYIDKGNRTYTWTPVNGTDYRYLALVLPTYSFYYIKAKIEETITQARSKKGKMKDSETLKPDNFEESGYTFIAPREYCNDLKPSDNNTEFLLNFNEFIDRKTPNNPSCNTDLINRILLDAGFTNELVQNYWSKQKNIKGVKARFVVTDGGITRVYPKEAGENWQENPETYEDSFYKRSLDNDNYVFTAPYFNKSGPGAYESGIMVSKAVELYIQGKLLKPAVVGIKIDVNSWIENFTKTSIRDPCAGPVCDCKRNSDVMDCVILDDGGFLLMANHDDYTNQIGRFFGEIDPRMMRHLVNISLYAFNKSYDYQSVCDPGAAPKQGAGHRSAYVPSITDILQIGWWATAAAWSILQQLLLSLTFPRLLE
T1 sequence (P54290 945-1091 limits assumed): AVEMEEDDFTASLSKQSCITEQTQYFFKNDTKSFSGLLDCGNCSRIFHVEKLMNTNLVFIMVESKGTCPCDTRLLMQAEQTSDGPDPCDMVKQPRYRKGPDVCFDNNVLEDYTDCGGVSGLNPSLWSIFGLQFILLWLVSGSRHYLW

By melting point is commonly meant the temperature of the solid-liquid transition. Take `C[Si]1(C(CN)CC(=O)O)CCCCC1` (stereo not drawn): the melting point lay in the range of 160 to 161.5 °C.
Regarding `C[Si]1(CC(CN)CC(=O)O)CCCCC1` (stereo not drawn), the melting point was 140.5 to 143 °C.
In the case of `CCCCCCCC[Si](C)(C)C(CN)CC(=O)O` (stereo not drawn) [4-amino-3-(dimethyl-n-octylsilyl)butanoic acid], the “inhibition ratio (inhibition of binding of gabapentin)” value (shortened to “inhibition ratio”) on gabapentin receptor was determined as 32%.
In the case of `CC(C)(C)[Si](C)(C)C(CN)CC(=O)O` (stereo not drawn) [4-amino-3-(tert-butyldimethylsilyl)butanoic acid], at gabapentin receptor, the “inhibition ratio” value worked out at 13%.
For the molecule `C[Si](C)(C)C(CN)CC(=O)O` (stereo not drawn) [Compound A, 4-amino-3-(trimethylsilyl)butanoic acid], the melting point is 199 to 201 °C. The “inhibition ratio” value on gabapentin receptor is given as 35%. The same molecule showed a pain threshold value with rat Chung model (20 mg/kg) of 6.2 ± 0.4 g. The pain threshold value with rat Chung model (60 mg/kg) stood at 7.8 ± 0.5 g.
As for `C[Si](C)(C)CC(CN)CC(=O)O` (stereo not drawn) [Compound B, 4-amino-3-(trimethylsilylmethyl)butanoic acid], on gabapentin receptor, the “inhibition ratio” value stood at 28%. Further, the pain threshold value worked out at 5.4 ± 0.2 g with rat Chung model (20 mg/kg) and 7.9 ± 0.4 g in the data set with rat Chung model (60 mg/kg).
`C[Si]1(CC(CN)CC(=O)O)CCCC1` (stereo not drawn) [Compound C, 4-amino-3-[(1-methyl-1-silacyclopentan-1-yl)methyl]butanoic acid] returned a melting point of 133 to 135 °C. Also, the pain threshold value in the data set with rat Chung model (20 mg/kg) turned out to be 5.7 ± 0.6 g. The pain threshold value with rat Chung model (60 mg/kg) is 8.8 ± 0.3 g.
Consider `C[Si]1(CC(C#N)CC(=O)O)CCCCC1` (stereo not drawn) [Compound D, 4-(1-methyl-1-silacyclohexan-1-yl)-3-cyanobutanoic acid], for which the pain threshold value turned out to be 4.8 ± 0.2 g in the data set with rat Chung model (20 mg/kg) and 7.3 ± 0.5 g with rat Chung model (60 mg/kg).
As for `CC(C)C[C@H](CN)CC(=O)O` [Compound E, (S)-3-(aminomethyl)-5-methylhexanoic acid, reference compound], the values for the pain threshold value with rat Chung model (10 mg/kg) and in the data set with rat Chung model (30 mg/kg) were 6.3 ± 0.3 g and 8.3 ± 0.2 g, respectively.
